ChEMBL document CHEMBL3046811, “Syntheses and in vitro biological screening of 1-aryl-10H-[1,2,4]triazolo[3,4:3,4][1,2,4]triazino[5,6-b]indoles” (Med Chem Res, 2013)

Tests used:
[1] = test system: Respiratory syncytial virus; assay: Antiviral activity against Respiratory syncytial virus infected African green monkey Vero 76 cells assessed as reduction in plaque number treated after viral infection measured after 5 days by plaque reduction assay; assay type: functional, organism-based; conditions: human respiratory syncytial virus, 120 h
[2] = test system: Poliovirus 1; assay: Antiviral activity against Human poliovirus 1 strain Sabin infected African green monkey Vero 76 cells assessed as reduction in plaque number treated after viral infection measured after 2 days by plaque reduction assay; assay type: functional, organism-based; conditions: Enterovirus C, 48 h
[3] = test system: Vesicular stomatitis virus; assay: Antiviral activity against Vesicular stomatitis virus infected African green monkey Vero 76 cells assessed as reduction in plaque number treated after viral infection measured after 2 days by plaque reduction assay; assay type: functional, organism-based; conditions: 48 h
[4] = test system: Coxsackievirus B2; assay: Antiviral activity against Human coxsackievirus B2 infected in African green monkey Vero 76 cells assessed as reduction in plaque number treated after viral infection measured after 3 days by plaque reduction assay; assay type: functional, organism-based; conditions: Enterovirus B, 72 h
[5] = test system: Vaccinia virus; assay: Antiviral activity against Vaccinia virus infected African green monkey Vero 76 cells assessed as reduction in plaque number treated after viral infection measured after 3 days by plaque reduction assay; assay type: functional, organism-based; conditions: Orthopoxvirus vaccinia, 72 h
[6] = test system: Bovine viral diarrhea virus 1; assay: Antiviral activity against Bovine viral diarrhea virus 1 infected bovine MDBK cells assessed as protection against virus-induced cytopathogenicity treated 1 hr after viral infection measured after 3-4 days by MTT method; assay type: functional, organism-based; conditions: Bovine viral diarrhea virus isolates and strains
[7] = test system: Human immunodeficiency virus 1; assay: Antiviral activity against Human immunodeficiency virus 1 infected human MT4 cells assessed as protection against virus-induced cytopathogenicity treated before viral infection measured after 4 days by MTT assay; assay type: functional, organism-based; conditions: Human immunodeficiency virus 1, MT4, 96 h
[8] = Cytotoxicity against Chlorocebus aethiops (African green monkey) Vero 76 cells assessed as inhibition of cell viability after 48 to 120 hr by MTT assay; assay type: cell-based; conditions: chlorocebus sabaeus
[9] = Cytotoxicity against Mesocricetus auratus (Syrian golden hamster) BHK21cells assessed as inhibition of cell viability after 48 to 120 hr by MTT assay; assay type: cell-based; conditions: BHK-21 cells
[10] = Cytotoxicity against Bos taurus (bovine) MDBK cells assessed as inhibition of cell viability after 48 to 120 hr by MTT assay; assay type: cell-based; conditions: cattle
[11] = Cytotoxicity against Homo sapiens (human) MT4 cells assessed as inhibition of cell vaibility after 96 hr by MTT assay; assay type: cell-based
[12] = test system: Human alphaherpesvirus 1; assay: Antiviral activity against Human herpesvirus 1 infected African green monkey Vero 76 cells assessed as reduction in plaque number treated after viral infection measured after 3 days by plaque reduction assay; assay type: functional, organism-based; conditions: Human alphaherpesvirus 1, Vero, 72 h
[13] = test system: Mammalian orthoreovirus 1; assay: Antiviral activity against Mammalian orthoreovirus 1 infected Syrian hamster BHK-21 cells assessed as protection against virus-induced cytopathogenicity treated 1 hr after viral infection measured after 3-4 days by MTT method; assay type: functional, organism-based; conditions: Mammalian orthoreovirus 1, BHK-21
[14] = test system: Yellow fever virus; assay: Antiviral activity against Yellow fever virus infected Syrian hamster BHK-21 cells assessed as protection against virus-induced cytopathogenicity treated 1 hr after viral infection measured after 3-4 days by MTT method; assay type: functional, organism-based

Row | Structure (SMILES) | EC50 [1] [µM] | EC50 [2] [µM] | EC50 [3] [µM] | EC50 [4] [µM] | EC50 [5] [µM] | EC50 [6] [µM] | EC50 [7] [µM] | CC50 [8] [µM] | CC50 [9] [µM] | CC50 [10] [µM] | CC50 at 96 h [11] [µM] | EC50 [12] [µM] | EC50 [13] [µM] | EC50 [14] [µM]
1 | c1ccc(Oc2cccc(-c3nnc4nnc5c6ccccc6[nH]c5n34)c2)cc1 | > 80 | > 80 | > 80 | > 80 | > 80 | > 100 | > 100 | 80 | 100 | > 100 | > 100 | > 80 | > 100 | > 100
2 | C[C@@]1(O)[C@H](O)[C@@H](CO)O[C@H]1n1cnc2c(=O)[nH]c(N)nc21 [2'-B-METHYL-GUANOSINE] | – | – | – | – | – | 1.8 | – | – | – | – | – | – | – | 2.5
3 | Oc1ccc(-c2nnc3nnc4c5ccccc5[nH]c4n23)cc1 | > 100 | > 100 | > 100 | > 100 | > 100 | > 100 | > 100 | > 100 | > 100 | > 100 | > 100 | > 100 | > 100 | > 100
4 | COc1ccc(OC)c(-c2nnc3nnc4c5ccccc5[nH]c4n23)c1 | > 15 | > 15 | > 15 | > 15 | > 15 | > 12 | > 4 | 15 | 30 | 12 | 4 | > 15 | > 30 | > 30
5 | CSc1ccc(-c2nnc3nnc4c5ccccc5[nH]c4n23)cc1 | > 90 | > 90 | > 90 | > 90 | > 90 | > 100 | > 100 | 90 | > 100 | > 100 | > 100 | > 90 | 45 | > 100
6 | COc1ccc(-c2nnc3nnc4c5ccccc5[nH]c4n23)cc1 | > 100 | > 100 | > 100 | > 100 | > 100 | > 100 | > 100 | > 100 | > 100 | > 100 | > 100 | > 100 | > 100 | > 100
7 | Cc1ccc(-c2nnc3nnc4c5ccccc5[nH]c4n23)cc1 | > 100 | > 100 | > 100 | > 100 | > 100 | > 100 | > 100 | ≥ 100 | > 100 | > 100 | > 100 | > 100 | > 100 | > 100
8 | O=[N+]([O-])c1ccccc1-c1nnc2nnc3c4ccccc4[nH]c3n12 | > 100 | > 100 | > 100 | 100 | > 100 | > 100 | > 100 | > 100 | > 100 | > 100 | > 100 | > 100 | > 100 | > 100
9 | COc1cccc(-c2nnc3nnc4c5ccccc5[nH]c4n23)c1 | > 65 | > 65 | > 65 | > 65 | > 65 | > 64 | > 47 | 65 | > 100 | 64 | 47 | > 65 | > 100 | > 100
10 | Cc1cn([C@H]2C[C@H](N=[N+]=[N-])[C@@H](CO)O2)c(=O)[nH]c1=O [ZIDOVUDINE] | – | – | – | – | – | – | 0.01 | – | – | – | – | – | – | –
11 | C#C[C@@]1(O)[C@H](O)[C@@H](CO)O[C@H]1n1ccc(N)nc1=O [2'-ETHYNYL-D-CYTIDINE] | – | 18 | – | 23 | – | – | – | – | – | – | – | – | – | –
12 | COc1c(C)c2c(c(O)c1C/C=C(\C)CCC(=O)O)C(=O)OC2 [MYCOPHENOLIC ACID] | – | – | – | – | 1.8 | – | – | – | – | – | – | – | – | –
